SMILES strings stand for the structures. Where a name gives a salt, the structure may show the parent alone.

Sequence of SSTR5 (P35346 whole entry): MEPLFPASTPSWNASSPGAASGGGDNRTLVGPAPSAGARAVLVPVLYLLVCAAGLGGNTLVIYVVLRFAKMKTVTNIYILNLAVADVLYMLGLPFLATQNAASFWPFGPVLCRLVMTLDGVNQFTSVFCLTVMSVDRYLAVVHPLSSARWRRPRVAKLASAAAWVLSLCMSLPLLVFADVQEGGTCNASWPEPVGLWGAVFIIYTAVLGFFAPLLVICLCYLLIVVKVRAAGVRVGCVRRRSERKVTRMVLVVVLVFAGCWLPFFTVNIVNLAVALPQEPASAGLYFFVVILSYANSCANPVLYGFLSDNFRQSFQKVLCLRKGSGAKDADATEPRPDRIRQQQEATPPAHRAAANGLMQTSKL

The test concerns the target SSTR5 (Homo sapiens (Human), UniProt P35346). The test can be described thus: SSTR5 binding assay. The conditions noted are these: CHO-K1 membranes expressing cloned human SSTR5. In outline:
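Competition binding on membranes from CHO-K1 cells stably expressing cloned human receptor, using radiolabeled somatostatin in 50 mM Tris-HCl pH 7.8 with EGTA, MgCl2 and protease inhibitors. Unlabeled compounds tested from 0.01 nM to 10,000 nM.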
On to `CC(C)(C)n1cc(CN2CCC3(CC2)CN(c2ccc(C(=O)O)cc2)C(=O)O3)c(-c2ccc(F)c(Cl)c2)n1` [Example 1-28, 4-(8-{[1-tert-Butyl-3-(3-chloro-4-fluorophenyl)-1H-pyrazol-4-yl]methyl}-2-oxo-1-oxa-3,8-diazaspiro[4.5]dec-3-yl)benzoic acid, TFA salt], for which the half-inhibitory concentration (IC50) is 0.421 nM. Regarding `O=C(O)c1ccc(N2CC3(CCN(Cc4cn(C5CCCCC5)nc4-c4cc(F)c(F)cc4F)CC3)OC2=O)cc1` [Example 1-33, 4-(8-{[1-Cyclohexyl-3-(2,4,5-trifluorophenyl)-1H-pyrazol-4-yl]methyl}-2-oxo-1-oxa-3,8-diazaspiro[4.5]dec-3-yl)benzoic acid, TFA salt], the IC50 stood at 1.29 nM. In the case of `O=C(O)c1ccc(N2CC3(CCN(Cc4c(-c5cc(F)c(F)cc5F)nn(-c5ccccc5)c4Cl)CC3)OC2=O)cc1` [Example 1-39, 4-(8-{[5-Chloro-1-phenyl-3-(2,4,5-trifluorophenyl)-1H-pyrazol-4-yl]methyl}-2-oxo-1-oxa-3,8-diazaspiro[4.5]dec-3-yl)benzoic acid, TFA salt] it was 44.6 nM; in that of `CC(C)(C)n1cc(CN2CCCC3(CC2)CN(c2ccc(C(=O)O)cc2)C(=O)O3)c(-c2ccc(F)c(F)c2F)n1` (stereo not shown) [Example 2-11, 4-(8-{[1-tert-Butyl-3-(2,3,4-trifluorophenyl)-1H-pyrazol-4-yl]methyl}-2-oxo-1-oxa-3,8-diazaspiro[4.6]undec-3-yl)benzoic acid, TFA salt], 207 nM.

`CCOc1cc(CN2CCC3(CC2)CN(c2ccc(C(=O)O)cc2)C(=O)O3)cc2c(OC)cc(Cl)cc12` [Example 5-5, 4-{8-[(6-Chloro-4-ethoxy-8-methoxynaphthalen-2-yl)methyl]-2-oxo-1-oxa-3,8-diazaspiro[4.5]dec-3-yl}benzoic acid, TFA salt] showed a 50% inhibitory concentration (IC50) of 0.65 nM. The result for `CCOc1cc(CN2CCC3(CC2)CN(c2ccc(C(=O)O)cc2Cl)C(=O)O3)c(-c2ccc(F)c(F)c2F)cc1C` [Example 4-22, 3-Chloro-4-{8-[(4-ethoxy-2′,3′,4′-trifluoro-5-methylbiphenyl-2-yl)methyl]-2-oxo-1-oxa-3,8-diazaspiro[4.5]dec-3-yl}benzoic acid, TFA salt] reads 0.468 nM.

Regarding `COc1ccc2c(CN3CCC4(CC3)CN(c3ccc(C(=O)O)cc3)C(=O)O4)nn(C3CC3)c2c1` [Example 6-12, 4-{8-[(1-Cyclopropyl-6-methoxy-1H-indazol-3-yl)methyl]-2-oxo-1-oxa-3,8-diazaspiro[4.5]dec-3-yl}benzoic acid, TFA salt], the concentration for half-maximal inhibition (IC50) amounted to 216 nM. This IC50 is about 460-fold higher than that of the molecule before.

With `CCOc1cc(CN2CCCC3(CC2)CN(c2ccc(C(=O)O)cc2)C(=O)O3)cc(OCC)c1-c1ccc(F)cc1` (stereo not shown) [Example 2-12, 4-{8-[(2,6-Diethoxy-4′-fluorobiphenyl-4-yl)methyl]-2-oxo-1-oxa-3,8-diazaspiro[4.6]undec-3-yl}benzoic acid, TFA salt], the IC50 was found to be 4.93 nM. The result for `CC(C)(C)n1cc(CN2CCC3(C2)CN(c2ccc(C(=O)O)cc2)C(=O)O3)c(-c2ccc(F)c(F)c2F)n1` (stereo not shown) [Example 2-17, 4-(7-{[1-tert-Butyl-3-(2,3,4-trifluorophenyl)-1H-pyrazol-4-yl]methyl}-2-oxo-1-oxa-3,7-diazaspiro[4.4]non-3-yl)benzoic acid, TFA salt] reads 32.7 nM; that for `COc1cccc(-c2nn(-c3ccccc3)cc2CN2CCC3(CC2)CN(c2ccc(C(=O)O)cc2)C(=O)O3)c1` [Example 1-22, 4-(8-{[3-(3-Methoxyphenyl)-1-phenyl-1H-pyrazol-4-yl]methyl}-2-oxo-1-oxa-3,8-diazaspiro[4.5]dec-3-yl)benzoic acid, TFA salt], 4.87 nM; that for `O=C(O)c1ccc(N2CC3(CCN(Cc4cnn(-c5ccccc5)c4-c4cc(F)c(F)cc4F)CC3)OC2=O)cc1` [Example 2-7, 4-(2-Oxo-8-{[1-phenyl-5-(2,4,5-trifluorophenyl)-1H-pyrazol-4-yl]methyl}-1-oxa-3,8-diazaspiro[4.5]dec-3-yl)benzoic acid, TFA salt], 1.83 nM.

The molecule `O=C(O)c1ccc(N2CC3(CCN(Cc4cc(C(F)(F)F)ccc4-c4ccc(F)nc4)CC3)OC2=O)cc1` [Example 4-10, 4-{8-[2-(6-Fluoropyridin-3-yl)-5-(trifluoromethyl)benzyl]-2-oxo-1-oxa-3,8-diazaspiro[4.5]dec-3-yl}benzoic acid, TFA salt] registered a half-inhibitory concentration (IC50) of 1.49 nM. In the case of `O=C(O)c1ccc(N2CC3(CCN(Cc4cn(-c5ccccc5)nc4-c4ccc(OC(F)(F)F)cc4)CC3)OC2=O)cc1` [Example 1-27, 4-[2-Oxo-8-({1-phenyl-3-[4-(trifluoromethoxy)phenyl]-1H-pyrazol-4-yl}methyl)-1-oxa-3,8-diazaspiro[4.5]dec-3-yl]benzoic acid, TFA salt] it was 12.9 nM; in that of `CCCn1nc(CN2CCC3(CC2)CN(c2ccc(C(=O)O)cc2)C(=O)O3)c2ccc(OC)cc21` [Example 6-3, 4-{8-[(6-Methoxy-1-propyl-1H-indazol-3-yl)methyl]-2-oxo-1-oxa-3,8-diazaspiro[4.5]dec-3-yl}benzoic acid, TFA salt], 156 nM; in that of `CCOc1ccc(-c2ccc(F)cc2F)c(CN2CCC3(CC2)CN(c2ccc(C(=O)O)cc2)C(=O)O3)c1` [Example 4-3, 4-{8-[(4-Ethoxy-2′,4′-difluorobiphenyl-2-yl)methyl]-2-oxo-1-oxa-3,8-diazaspiro[4.5]dec-3-yl}benzoic acid, TFA salt], 0.49 nM. In the case of `O=C(O)c1ccc(N2CC3(CCN(Cc4nn(Cc5ccc(Cl)cc5)cc4-c4ccc(F)c(F)c4F)CC3)OC2=O)cc1` [Example 2-3, 4-(8-{[1-(4-Chlorobenzyl)-4-(2,3,4-trifluorophenyl)-1H-pyrazol-3-yl]methyl}-2-oxo-1-oxa-3,8-diazaspiro[4.5]dec-3-yl)benzoic acid, TFA salt] it was 89.3 nM. In the case of `COc1ccc2c(CN3CCC4(CC3)CN(c3ccc(C(=O)O)cc3)C(=O)O4)cn(C)c2c1` [Example 6-19, 4-{8-[(6-Methoxy-1-methyl-1H-indol-3-yl)methyl]-2-oxo-1-oxa-3,8-diazaspiro[4.5]dec-3-yl}benzoic acid, TFA salt] it was 6.79 nM. The molecule `Cc1ccc(-n2cc(CN3CCC4(CC3)CN(c3ccc(C(=O)O)cc3)C(=O)O4)c(-c3ccc(F)c(F)c3F)n2)c(C)c1` [Example 1-6, 4-(8-{[1-(2,4-Dimethylphenyl)-3-(2,3,4-trifluorophenyl)-1H-pyrazol-4-yl]methyl}-2-oxo-1-oxa-3,8-diazaspiro[4.5]dec-3-yl)benzoic acid, TFA salt] showed an IC50 of 1.54 nM. This IC50 is about 4.4-fold lower than that of the molecule before. In the case of `CC(C)n1nc(CN2CCC3(CC2)CN(c2ccc(C(=O)O)cc2)C(=O)O3)c2cc(F)ccc21` [Example 6-5, 4-(8-{[5-Fluoro-1-(propan-2-yl)-1H-indazol-3-yl]methyl}-2-oxo-1-oxa-3,8-diazaspiro[4.5]dec-3-yl)benzoic acid, TFA salt] it was 149 nM; in that of `CCOc1cc(CN2CCC3(CC2)CN(c2ccc(C(=O)O)cc2F)C(=O)O3)cc(OCC)c1-c1ccc(F)cc1` [Example 3-21, 4-{8-[(2,6-Diethoxy-4′-fluorobiphenyl-4-yl)methyl]-2-oxo-1-oxa-3,8-diazaspiro[4.5]dec-3-yl}-3-fluorobenzoic acid, TFA salt], 0.437 nM; in that of `CCOc1cc(CN2CCC3(CC2)CN(c2ccc(C(=O)O)cc2)C(=O)O3)cc2c(OC)cccc12` [Example 5-2, 4-{8-[(4-Ethoxy-8-methoxynaphthalen-2-yl)methyl]-2-oxo-1-oxa-3,8-diazaspiro[4.5]dec-3-yl}benzoic acid, TFA salt], 0.704 nM.

Turning to `O=C(O)c1ccc(N2CC3(CCN(Cc4n[nH]c5ccc(F)cc45)CC3)OC2=O)cc1` [Example 6-1, 4-{8-[(5-Fluoro-1H-indazol-3-yl)methyl]-2-oxo-1-oxa-3,8-diazaspiro[4.5]dec-3-yl}benzoic acid, TFA salt], the IC50 worked out at 1170 nM.

Consider `CCCCn1cc(CN2CCC3(CC2)CN(c2ccc(C(=O)O)cc2)C(=O)O3)c(Cc2cc(F)c(F)cc2F)n1` [Example 1-40, 4-(8-{[1-Butyl-3-(2,4,5-trifluorobenzyl)-1H-pyrazol-4-yl]methyl}-2-oxo-1-oxa-3,8-diazaspiro[4.5]dec-3-yl)benzoic acid, TFA salt], for which the concentration for half-maximal inhibition (IC50) was determined as 8.34 nM. The result for `O=C(O)c1ccc(N2CC3(CCN(Cc4cnn(C5CCCCC5)c4-c4cc(F)c(F)cc4F)CC3)OC2=O)cc1` [Example 2-8, 4-(8-{[1-Cyclohexyl-5-(2,4,5-trifluorophenyl)-1H-pyrazol-4-yl]methyl}-2-oxo-1-oxa-3,8-diazaspiro[4.5]dec-3-yl)benzoic acid, TFA salt] reads 10.4 nM; that for `CCOc1cc(CN2CCC3(CC2)CN(c2cncc(C(=O)O)c2)C(=O)O3)cc(OCC)c1-c1ccc(F)cc1` [Example 3-5, 5-{8-[(2,6-Diethoxy-4′-fluorobiphenyl-4-yl)methyl]-2-oxo-1-oxa-3,8-diazaspiro[4.5]dec-3-yl}pyridine-3-carboxylic acid, TFA salt], 2.12 nM; that for `CCOc1ccc(-c2ccc(F)c(F)c2)c(CN2CCC3(CC2)CN(c2ccc(C(=O)O)cc2)C(=O)O3)c1` [Example 4-4, 4-{8-[(4-Ethoxy-3′,4′-difluorobiphenyl-2-yl)methyl]-2-oxo-1-oxa-3,8-diazaspiro[4.5]dec-3-yl}benzoic acid, TFA salt], 0.502 nM. In the case of `CC(C)Oc1ccc(-c2cc(F)c(F)cc2F)c(CN2CCC3(CC2)CN(c2ccc(C(=O)O)cc2)C(=O)O3)c1` [Example 4-16, 4-(2-Oxo-8-{[2′,4′,5′-trifluoro-4-(propan-2-yloxy)biphenyl-2-yl]methyl}-1-oxa-3,8-diazaspiro[4.5]dec-3-yl)benzoic acid, TFA salt] it was 0.272 nM; in that of `Cc1nc(-c2ccccc2)c(CN2CCC3(CC2)CN(c2ccc(C(=O)O)cc2)C(=O)O3)s1` [Example 6-33, 4-{8-[(2-Methyl-4-phenyl-1,3-thiazol-5-yl)methyl]-2-oxo-1-oxa-3,8-diazaspiro[4.5]dec-3-yl}benzoic acid, TFA salt], 153 nM.

Values taken from patent US8742110B2, “Spiroxazolidinone compounds” (Merck Sharp & Dohme Corp., priority 2010, dated 2014).
